Test system: L1210
Experiment: In vitro antitumor activity against L1210 cancer cell line
Type: functional, cell-based
Settings: Mus musculus

## O=C(/N=C\NNC(=O)NO)NO
  IC50: 82 µM

— ChEMBL document CHEMBL1145997, “Understanding the antitumor activity of novel hydroxysemicarbazide derivatives as ribonucleotide reductase inhibitors using CoMFA and CoMSIA” (J Med Chem, 2003)
